The values below come from ChEMBL document CHEMBL1127089, “Non-nucleoside inhibitors of HIV-1 reverse transcriptase: molecular modeling and X-ray structure investigations” (J Med Chem, 1993).

pIC50: −log10 of the molar value.

The test has as its target Human immunodeficiency virus type 1 reverse transcriptase (Human immunodeficiency virus 1, UniProt Q72547). Kind of test: In vitro for inhibitory activity against HIV-1 Reverse Transcriptase.

The compound `O=C1c2ccccc2[C@@]23CC=CCC12c1ccccc1C3=O` (stereo partly specified) gave a negative logarithm of the IC50 (pIC50) of 5.06.
Take `O=C1c2ccccc2[C@H]2SCCN1c1ccccc12`: the pIC50 was 6.08.
For `O=C1c2ccccc2C2(c3ccccc3)SCCN12` (stereo unspecified), the pIC50 is 6.55.
Turning to `CC(C)=CCN1Cc2cccc3[nH]c(=S)n(c23)C[C@@H]1C`, the negative-log IC50 (pIC50) is 6.80.
The same measure for `Cc1cccc(C23SCCN2C(=O)c2ccccc23)c1` (stereo unspecified): 7.52.
In the case of `O=C1c2ccccc2C2(c3cccc4ccccc34)SCCN12` (stereo unspecified), the negative logarithm of the IC50 (pIC50) was 6.82.

As a reminder, the pIC50 is the negative decadic logarithm of the IC50, by convention in mol/L. The low end stands for a large IC50, the high end for a small IC50.
